Test results: patent US20080139608A1, “2,6,8, Trisubstituted 1-deazapurines and their different uses” (Universiteit Leiden, priority 2006, published 2008)

How the values were obtained:
[1] = target: T1, human adenosine A1 receptor (Homo sapiens, UniProt P30542); test: Radioligand binding assay, displacement of specific [3H]DPCPX binding; details: CHO cells expressing human adenosine A1 receptors; n = 3; read-out: A1 Ki ± SEM, displacement of specific [3H]DPCPX binding
T1 construct: expressed in transfected cells; host or cells: CHO cells
T1 sequence (P30542 1-326): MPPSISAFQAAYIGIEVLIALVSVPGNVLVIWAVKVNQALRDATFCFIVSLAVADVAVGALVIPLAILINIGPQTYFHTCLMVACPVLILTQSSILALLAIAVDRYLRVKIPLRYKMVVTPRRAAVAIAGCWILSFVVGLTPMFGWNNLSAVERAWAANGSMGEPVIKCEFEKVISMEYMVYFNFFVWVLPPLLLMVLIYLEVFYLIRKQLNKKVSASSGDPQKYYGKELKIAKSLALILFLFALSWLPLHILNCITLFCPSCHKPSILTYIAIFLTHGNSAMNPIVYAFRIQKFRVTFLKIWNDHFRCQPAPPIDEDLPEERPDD
Description: Radioligand Binding Studies [^3H]DPCPX was purchased from Amersham. All compounds made were tested in radioligand binding assays to determine their affinities at the human adenosine A1 receptor. The affinities at the A1 receptors were determined on CHO cells expressing the human receptors, using [^3H]DPCPX as the radioligand according to a previously described method.^11
Data Analysis Competition binding data were fit to a single-site binding model and plotted using the software package Prism (Graph Pad, San Diego, Calif., USA). The Cheng-Prusoff equation Ki=IC50/(1+[I]/Kd) was used to calculate Ki values, where Ki is the affinity constant for the competing ligand, [I] is the concentration of the free radioligand, and Kd is the affinity constant for the radioligand.

| Ki [1] [nM] | melting point [°C] | SMILES |
| --- | --- | --- |
| 2.45 ± 0.23 | – | CCCc1nc2c(-c3ccccc3)cc(-c3ccccc3)nc2[nH]1 [Compound 6, 2,6-Diphenyl-8-propyl-1-deazapurine] |
| – | 196 to 197 | CC(C)CCc1nc2nc(-c3ccccc3)cc(-c3ccccc3)c2[nH]1 [Compound 9, 2,6-Diphenyl-8-isopentyl-1-deazapurine] |
| 0.62 ± 0.3 | – | c1ccc(-c2cc(-c3ccccc3)c3[nH]c(C4CCCC4)nc3n2)cc1 [Compound 11, 8-Cyclopentyl-2,6-diphenyl-1-deazapurine] |

More lines, now with the values behind:

| SMILES | Ki [1] [nM] | melting point [°C] |
| --- | --- | --- |
| CC(C)c1nc2nc(-c3ccccc3)cc(-c3ccccc3)c2[nH]1 [Compound 7, 2,6-Diphenyl-8-isopropyl-1-deazapurine] | 0.61 ± 0.04 | – |
| c1ccc(-c2cc(-c3ccccc3)c3[nH]c(C4CCCCC4)nc3n2)cc1 [Compound 12, 2,6-Diphenyl-8-cyclohexyl-1-deazapurine] | 0.9 ± 0.21 | – |
